Results from patent publication US20080146657A1, “Plant-Origin Alpha3-Adrenoceptor Agonist and Use of the Same” (priority 2003, published 2008).
Where two headings read alike, the source gives them in different places.

Key:
[1] = molecular target: T1, human β3-adrenergic receptor (Homo sapiens, UniProt P13945); assay: Measurement of human β3-adrenergic receptor agonist activity (intracellular cAMP, recombinant CHO-K1 cells); assay type: cell-based
T1 construct: expressed in transfected cells; vector pTracer-EF A
Procedure: The obtained recombinant cells were cultured in a 96-well microplate until the cell density reaches 100%. After the medium was removed, the cells were washed once with Dulbecco's modified phosphate buffer solution (hereinafter, abbreviated as PBS; TaKaRa), and then 100 μL of an assay buffer [DMEM, 10% FCS, 20 mM HEPES (pH 7.2), 0.1 mM isobutylmethylxanthine] containing 10 μM isoproterenol was added. As a control, the assay buffer was used without addition of isoproterenol. After incubation at 37° C. for 20 minutes, the cells were washed once with PBS, and then the amount of intracellular cAMP were quantified using a cAMP EIA Kit (Amersham Bioscience). […] The selected recombinant cells were further cultured. […]
The human β3-adrenergic receptor-expressing recombinant 6H4-2d3 was cultured in a 96-well microplate in DMEM containing 10% FCS and 500 μg/mL Zeocin at 37° C. in a 5% CO2 atmosphere. […] The cells were washed once with PBS, and an assay buffer [DMEM, 10% FCS, 20 mM HEPES (pH 7.2), 0.1 mM isobutylmethylxanthine] supplemented with the test substance to be measured was added at 100 μL/well. After incubation at 37° C. for 10 minutes, the cells were washed once with PBS, and then their intracellular cAMP levels were quantified using a cAMP EIA Kit (Amersham Bioscience). […] The same test substance was measured three times and the mean and standard deviation of the measurements were used. […]

3T3-L1 adipocytes = assay: Measurement of lipolytic effect using 3T3-L1 cells (glycerol release); assay type: cell-based, mouse; conditions: 5 μM to 500 μM; 3 days incubation
Procedure: 3T3-L1 cells which are adipocyte precursor cells derived from mice (purchased from Human Science Research Resource Bank) were added into a 96-well plate at 1×10^4 cells/well, and then cultured in Dulbecco's modified Eagle medium (D-MEM, GIBCO) supplemented with 10% fetal calf serum (FCS) at 37° C. in a 5% CO2 atmosphere. To induce differentiation to adipocytes, right before the cells reaches confluency, the medium was exchanged with 10% FCS-containing D-MEM supplemented with 0.5 mM 3-isobutyl-1-methylxanthine, 2×10^−7 M dexamethasone, and 0.8 μM insulin. Two days later, the medium was exchanged with 10% FCS-containing D-MEM supplemented only with 0.8 μM insulin. […] The culture medium of the cells cultured in the 96-well plate were removed by aspiration, 10% FCS-containing D-MEM containing the test substance was added at 100 μL/well, and after incubation for 3 days, 80 μL of the culture medium was collected from each well, and the amount of glycerol in the culture medium was determined using “F-Kit Glycerol” (Boehringer Mannheim). […] To a test medium, 0.5 to 500 μg/mL of dried lotus leaf extract, 0.5 to 500 μM of quercetin, and 10^−8 M to 10^−5 M of isoproterenol as a positive control were added individually, and the amount of glycerol released into the medium due to degradation of the fat stored in 3T3-L1 adipocytes was measured.

[2] = system: rat β-adrenergic receptor; conditions: rat adipocytes treated with quercetin; cited from earlier work
[3] = cited from earlier work

T1 sequence (P13945 1-402 limits assumed): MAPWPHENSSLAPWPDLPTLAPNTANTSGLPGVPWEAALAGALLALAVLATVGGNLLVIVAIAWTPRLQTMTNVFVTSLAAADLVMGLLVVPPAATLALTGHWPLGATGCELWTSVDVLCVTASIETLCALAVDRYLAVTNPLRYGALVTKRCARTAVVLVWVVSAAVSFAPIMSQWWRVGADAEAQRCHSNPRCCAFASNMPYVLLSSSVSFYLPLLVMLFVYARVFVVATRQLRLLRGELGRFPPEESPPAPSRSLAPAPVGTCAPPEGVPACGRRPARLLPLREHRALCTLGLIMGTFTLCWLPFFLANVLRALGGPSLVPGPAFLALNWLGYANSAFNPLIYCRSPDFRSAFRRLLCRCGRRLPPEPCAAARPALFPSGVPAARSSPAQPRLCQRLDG

SMILES	β3-adrenergic receptor agonist activity (cAMP) ([1]; 1 μM, 10 μM, 100 μM, 1000 μM, compared with quercetin)	Lipolysis (glycerol released into the medium) (3T3-L1 adipocytes)	accumulation of cAMP ([1]; 15 μM, 30 µM, 60 μM, only in CHO-K1 cells expressing the receptor, not in non-expressing CHO-K1)	cAMP accumulation [2]	Solubility ([3]; boiling water)	Solubility ([3]; cold alcohol-ether)	Solubility ([3]; cold water)	Solubility ([3]; hot alcohol-glacial acetic acid)
O=C(O)[C@H]1O[C@@H](Oc2c(-c3ccc(O)c(O)c3)oc3cc(O)cc(O)c3c2=O)[C@H](O)[C@@H](O)[C@@H]1O [Q3GA, quercetin 3-O-β-D-glucuronide]	β3-adrenergic receptor agonist activity similar to that of quercetin							
O=c1c(O)c(-c2ccc(O)c(O)c2)oc2cc(O)cc(O)c12 [quercetin, 3,3′,4′,5,7-pentahydroxyflavone]		significantly promoted	significant accumulation of cAMP	cAMP accumulates	slightly soluble	poorly soluble	insoluble	readily soluble
